US20220354957A1, “PEPTIDES TARGETING MACROPHAGES, AND CONJUGATES, COMPOSITIONS, AND USES THEREOF” (Twinpig Biolab, Inc., priority 2021, published 2022)

Legend:
CT26 = assay: Colon cancer model (CT26); assay type: in vivo, mouse; settings: vs PBS group
Text: (§1) BALB/c and C57BL/6 (B6) wild-type mice were purchased from DBL. For the subcutaneous tumor model of melanoma and prostate cancer, CT26 (3×10^5 cells/mouse), B16F10 (1×10^6 cells/mouse) and TRAMP-C2 cells (1×10^6 cells/mouse) were mixed with Matrigel matrix (Corning) and inoculated subcutaneously into the right flank of the mice, and 4T1 (1×10^5 cells/mouse) cells mixed with Matrigel matrix and inoculated into a 4th mammary fat pad of the mice. TAMpepK, and MpepK peptides (200 nmol/kg) were injected intraperitoneally every 3 days, beginning at day 7 after tumor inoculation, and tumor volume was measured by electronic caliper. All tumor tissues were harvested after the end of the study and tumor weight was measured by an electronic balance.

4T1 = assay: 4th mammary orthotopic mouse model of breast cancer (4T1); assay type: in vivo
Text: as §1
Total RNA was extracted using Easy-Blue reagent. Concentrations of RNA were determined and quantified by measuring absorbance at 260 and 280 nm with a spectrophotometer. Complementary DNA (cDNA) was synthesized from total RNA using a Maxime RT PreMix kit (iNtRON). Real-time PCR analysis was performed with SYBR Green Master Mix. PCR conditions were forty-five cycles at 95° C. for 5 min, followed by 95° C. for 10 sec, 60° C. for 10 sec and 72° C. for 10 sec. mRNA expression were quantified in triplicate. Data were measured with CFX Software (Bio-Rad). GAPDH and β-actin were used as internal controls.

M2 macrophages = assay: Cell viability test (CCK-8) of dKLA-conjugated alanine-substituted peptides; assay type: cell-based, human; settings: 1.5 μM, 1 hour then 24 hours, CCK-8, compared to control M2 macrophage
Protocol: (§2) THP-1 monocytes were differentiated into macrophages (M0) by 24 h incubation with 100 nM phorbol 12-myristate 13-acetate (PMA, Sigma) followed by 24 h incubation in RPMI medium (Invitrogen). Macrophages were polarized in M1 macrophages (M1) by incubation with 20 ng/ml of IFN-γ (Prospec) and 100ng/m1 of LPS (Sigma). Macrophage M2 polarization(M2) was obtained by incubation with 20 ng/ml of interleukin (IL) 4 (Prospec) and 20 ng/ml of interleukin 13 (Pro spec).
(§3) […] Cell viability was analyzed using the CCK-8 assay: CCK-8 reagent (Enzo Life Sciences) was added to each well; incubation was continued for 2 hours, and absorbance was measured at 450 nm with a microplate reader (Molecular Devices).

[1] = as above; assay type: cell-based, human; settings: FIG. 25; read-out: cytotoxicity IC50 in M2 macrophages
Protocol: as §2, §3

Hepa1-6 cells = assay: Mouse model of hepatocellular carcinoma (subcutaneous Hepa1-6); assay type: in vivo
Protocol: C57BL/6 (B6) wild-type mice purchased from DBL. For the subcutaneous tumor model of hepatocellular carcinoma, Hepa1-6 cells were mixed with Matrigel matrix (Corning) and inoculated subcutaneously into the right flank (4×10^5 cells/mouse) of the mice. MpepK peptide (100, 200 and 400 nmol/kg) were injected intraperitoneally every 3 days, beginning at day 12 after tumor inoculation and tumor volume was measured by electronic caliper. All animals were maintained in a specific pathogen-free environment on a 12-h light/dark cycle with free access to food and water. After the experiments were terminated, all mice were euthanized using isoflurane and cervical dislocation.

PC3 cells [2] = assay: Proliferation and migration of prostate cancer cells by conditioned medium of macrophages; assay type: cell-based, human; settings: conditioned media of M2 macrophages and M2-like TAMs pretreated with peptide
Protocol: (§4) To obtain conditioned media of tumor (TCM), PC3 cells were seeded at 2×10^5 cells/well in culture medium in 24-well plates (Corning Inc). After 24 hours, the medium was changed to serum-free RPMI1640 medium and the cells were incubated for 24 hours. For conditioned media of macrophages, THP-1 cells were seeded at 2×10^5 cells/well in culture medium in 24-well plates (Corning Inc) and incubated with 100 nM PMA for 24 h. Cells were polarized into M0, M1, and M2 macrophages or TAM macrophages by TCM and changed to serum-free RPMI1640 medium. After 24 hours, the medium was changed to serum-free RPMI1640 medium and the cells were incubated for 24 hours. Supernatants were harvested and clarified with syringe filters (0.2 μm, Milipore). Supernatants of PC3 cells were named tumor-conditioned medium (TCM).
Migration of prostate cancer and melanoma cells was assessed with wound healing assays. PC3 and Sk-Mel-28 cells were seeded at 2×10^5 cells/well in 24-well plates and cultured in RPMI1640 with 10% FBS. When the cells reached confluence, they were wounded by scraping across the surface of the well with a sterile micropipette tip. […] Wound areas were measured with ImageJ software (NCI, Bethesda, Md., USA). The percent of each wounded area filled by cell migration was calculated as: (mean wounded breadth—mean remaining breadth)/mean wounded breadth×100.

[3] = tested on: macrophages treated with TCM; assay: Cell viability of macrophages differentiated by TCM; assay type: cell-based, human; settings: 1 μM
PC3 cells [4] = assay: Invasion assay of prostate cancer cells with conditioned medium of macrophages; assay type: cell-based, human; settings: conditioned medium of M2 macrophages and M2-like TAMs pretreated with peptide
Protocol: as §4, with “Supernatants of PC3 cells were named tumor-conditioned medium (TCM).” left out
The invasiveness of prostate cancer cells treated with conditioned media of macrophages was tested according to the manufacturer's instructions for the invasion assay (Corning Inc.) with slight modifications. Briefly, invasiveness was assessed using 24-well plates fitted with polycarbonate 8-μm pore membrane inserts (Corning Inc.) pre-coated with Matrigel (200-300 μg/mL) for 2 hours at 37° C. […] Five randomly selected fields per membrane were counted under a light microscope (Olympus). The invasion index was calculated from the number of cells that migrated in response to conditioned medium compared with the control without conditioned medium.

Question: With CC[C@H](C)[C@H](NC(=O)[C@H](CC(C)C)NC(=O)[C@H](C)NC(=O)[C@@H]1CCCN1C(=O)[C@H](CC(C)C)NC(=O)CNC(=O)[C@@H](NC(=O)[C@@H](NC(=O)[C@H](CC(C)C)NC(=O)[C@@H](NC(C)=O)C(C)C)[C@@H](C)O)[C@@H](C)O)C(=O)N[C@@H](CO)C(=O)N[C@@H](Cc1c[nH]c2ccccc12)C(=O)N[C@H](C(=O)N[C@@H](CCCCN)C(=O)N[C@@H](CCCNC(=N)N)C(=O)N[C@@H](CCCCN)C(=O)N[C@@H](CCCNC(=N)N)C(=O)N[C@@H](CCC(N)=O)C(=O)N[C@@H](CCC(N)=O)C(=O)NCC(=O)NCC(=O)NCC(=O)NCC(=O)N[C@@H](CO)C(=O)N[C@H](CCCCN)C(=O)N[C@H](CC(C)C)C(=O)N[C@H](C)C(=O)N[C@H](CCCCN)C(=O)N[C@H](CC(C)C)C(=O)N[C@H](C)C(=O)N[C@H](CCCCN)C(=O)N[C@H](CCCCN)C(=O)N[C@H](CC(C)C)C(=O)N[C@H](C)C(=O)N[C@H](CCCCN)C(=O)N[C@H](CC(C)C)C(=O)N[C@H](C)C(=O)N[C@H](CCCCN)C(=O)O)[C@@H](C)CC [MpepK] as the molecule, how does the tumor volume (CT26) read?
Answer: significantly reduced

Question: What about the tumor weight (CT26) of the same molecule?
Answer: not significantly changed

Question: What about the “gene expression of arginase 1 (M2 macrophage marker)” value (4T1; compared to PBS) of the same molecule?
Answer: significantly reduced

Question: What about the lung metastasis (4T1; vs PBS group) of the same molecule?
Answer: decreased

Question: What about the tumor volume (4T1; vs PBS group) of the same molecule?
Answer: decreased

Question: What about the tumor weight (4T1; vs PBS group) of the same molecule?
Answer: decreased

Question: And the “cytotoxic effect in M2 macrophages” value (M2 macrophages)?
Answer: significant cytotoxic effects

Question: And the IC50 [1]?
Answer: 1120 nM

Question: What about the body weight change (Hepa1-6 cells; Hepa1-6 model, 100, 200 and 400 nmol/kg i.p. every 3 days) of the same molecule?
Answer: no significant difference

Question: What about the survival rate (Hepa1-6 cells; Hepa1-6 model, 100, 200 and 400 nmol/kg, vs PBS group) of the same molecule?
Answer: significantly extended

Question: And the tumor volume (Hepa1-6 cells; Hepa1-6 model, all doses (100, 200 and 400 nmol/kg) i.p. every 3 days, vs PBS group)?
Answer: significantly reduced

Question: What about the “proliferation of PC3 cells” value (PC3 cells [2]) of the same molecule?
Answer: significantly reduced

Question: What about the “migration of PC3 cells” value (PC3 cells [2]; wound healing) of the same molecule?
Answer: significantly reduced

Question: What about the “apoptosis in macrophages treated with TCM” value [3] of the same molecule?
Answer: induced apoptosis

Question: And the “invasion of PC3 cells” value (PC3 cells [4])?
Answer: significantly reduced
